One may read the IC50 as the point on the concentration scale where inhibition reaches its midpoint.

One experiment concerns the target HCoV-OC43 Mpro (Human coronavirus OC43, UniProt P0C6X6). Put plainly: HCoV-OC43 Mpro enzymatic inhibition assay (fluorescence). Type of experiment: biochemical. In outline:
(§1)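 E. coli-expressed Mpro + cpd, 30 min RT preinc; add fluorogenic substrate, 60 min 30 °C; read Ex/Em 340/490 nm. % inhibition vs DMSO and GC376 controls, corrected with no-enzyme compound blanks; IC50 by 4-parameter logistic fit.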

In the next experiment the target is HCoV-229E Mpro (Human coronavirus 229E, UniProt P0C6X1). The experiment is described as follows: HCoV-229E Mpro enzymatic inhibition assay (fluorescence). Format: biochemical.
In a further experiment the target is HCoV-NL63 Mpro (Human coronavirus NL63, UniProt P0C6X5). The experiment is described as follows: HCoV-NL63 Mpro enzymatic inhibition assay (fluorescence). Format: biochemical. The method in brief:
as §1

A further experiment deals with MERS Mpro (Middle East respiratory syndrome-related coronavirus, UniProt K9N7C7). Put plainly: biochemical. On the set-up: species or system MERS-CoV.
For a further experiment, the target named is SARS-CoV-1 Mpro (Severe acute respiratory syndrome coronavirus, UniProt P0C6X7). The experiment is described as follows: biochemical.
Another experiment deals with HCoV-HKU1 Mpro (Human coronavirus HKU1, UniProt P0C6X2). Put plainly: HCoV-HKU1 Mpro enzymatic inhibition assay (fluorescence). Format: biochemical. In outline:
as §1

A further experiment addresses SARS-CoV-2 Mpro (Severe acute respiratory syndrome coronavirus 2, UniProt P0DTD1). Put plainly: SARS-CoV-2 Mpro enzymatic inhibition assay (fluorescence). Type of experiment: biochemical. Conditions: mean; 25 nM protein, 25 μM substrate; 30 min pre-incubation, 60 min at 30° C.; read-out: Mpro_SARS-CoV-2 mean IC50. In outline: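 A fluorescence readout (340 nm excitation, 490 nm emission) was taken after the substrate reaction ran 60 min at 30° C. Before substrate addition, E. coli-expressed protease and compound (3-fold dilutions, 10 doses, duplicates) sat together 30 min at room temperature. Percent inhibition was fitted by variable-slope nonlinear regression to give IC50.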

Sequence of HCoV-229E Mpro (P0C6X1 2966-3267 limits assumed): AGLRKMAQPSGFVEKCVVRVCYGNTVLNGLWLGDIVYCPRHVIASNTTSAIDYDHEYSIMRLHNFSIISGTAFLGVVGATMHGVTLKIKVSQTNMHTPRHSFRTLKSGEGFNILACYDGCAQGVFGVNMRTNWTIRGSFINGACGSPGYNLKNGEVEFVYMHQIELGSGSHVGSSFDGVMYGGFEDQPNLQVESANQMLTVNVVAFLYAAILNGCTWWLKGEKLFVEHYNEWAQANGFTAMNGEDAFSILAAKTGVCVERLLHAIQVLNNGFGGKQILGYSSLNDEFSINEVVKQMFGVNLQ
Sequence of HCoV-NL63 Mpro (P0C6X5 2940-3242 limits assumed): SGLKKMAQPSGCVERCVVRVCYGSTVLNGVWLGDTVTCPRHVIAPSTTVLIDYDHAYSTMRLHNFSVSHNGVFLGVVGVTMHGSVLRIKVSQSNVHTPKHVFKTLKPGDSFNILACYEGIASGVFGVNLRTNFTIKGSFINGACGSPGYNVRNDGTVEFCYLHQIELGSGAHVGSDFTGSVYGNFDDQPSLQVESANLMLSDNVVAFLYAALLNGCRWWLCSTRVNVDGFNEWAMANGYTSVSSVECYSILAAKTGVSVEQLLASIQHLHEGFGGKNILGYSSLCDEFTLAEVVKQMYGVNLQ
Sequence of HCoV-HKU1 Mpro (P0C6X2 3335-3637 limits assumed): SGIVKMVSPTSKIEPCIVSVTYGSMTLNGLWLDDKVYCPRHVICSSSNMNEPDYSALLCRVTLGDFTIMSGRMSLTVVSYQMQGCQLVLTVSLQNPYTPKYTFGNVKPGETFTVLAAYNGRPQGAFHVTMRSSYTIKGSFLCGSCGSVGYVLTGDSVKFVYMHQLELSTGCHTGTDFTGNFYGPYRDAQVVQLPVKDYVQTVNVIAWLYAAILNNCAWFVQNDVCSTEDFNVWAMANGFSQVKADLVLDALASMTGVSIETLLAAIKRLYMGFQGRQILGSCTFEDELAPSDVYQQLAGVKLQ
Sequence of MERS Mpro (K9N7C7 3248-3553 limits assumed): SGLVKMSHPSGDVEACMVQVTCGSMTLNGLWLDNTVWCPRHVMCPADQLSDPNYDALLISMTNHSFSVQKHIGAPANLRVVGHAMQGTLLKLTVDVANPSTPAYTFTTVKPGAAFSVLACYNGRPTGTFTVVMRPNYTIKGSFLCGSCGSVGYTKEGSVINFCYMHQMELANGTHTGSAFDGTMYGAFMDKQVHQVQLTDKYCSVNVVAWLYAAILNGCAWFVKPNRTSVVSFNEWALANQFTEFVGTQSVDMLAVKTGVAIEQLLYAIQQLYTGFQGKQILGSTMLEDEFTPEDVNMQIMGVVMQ
Sequence of HCoV-OC43 Mpro (P0C6X6 3247-3549 limits assumed): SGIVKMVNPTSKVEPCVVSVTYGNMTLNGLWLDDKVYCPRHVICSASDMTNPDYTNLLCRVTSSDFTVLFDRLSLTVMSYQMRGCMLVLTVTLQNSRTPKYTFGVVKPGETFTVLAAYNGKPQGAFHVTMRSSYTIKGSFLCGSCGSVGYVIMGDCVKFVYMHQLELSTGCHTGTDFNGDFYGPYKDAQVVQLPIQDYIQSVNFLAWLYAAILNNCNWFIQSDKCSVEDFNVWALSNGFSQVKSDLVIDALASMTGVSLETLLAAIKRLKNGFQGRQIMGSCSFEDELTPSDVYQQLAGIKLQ

Regarding `CC(C)c1cccc2[nH]c(C(=O)N3C[C@H]4[C@@H]([C@H]3C(=O)N[C@H](C=O)C[C@@H]3CCNC3=O)C4(C)C)cc12` [Compound 34, (1R,2S,5S)-3-(4-isopropyl-1H-indole-2-carbonyl)-6,6-dimethyl-N—((S)-1-oxo-3-((S)-2-oxopyrrolidin-3-yl)propan-2-yl)-3-azabicyclo[3.1.0]hexane-2-carboxamide], the IC50 against HCoV-OC43 Mpro was 57.9 nM; against HCoV-229E Mpro, 37.7 nM; against HCoV-NL63 Mpro, 65.3 nM; at MERS Mpro, 278 nM; at SARS-CoV-1 Mpro, 35.3 nM; on HCoV-HKU1 Mpro, 20.8 nM. In addition, the concentration for half-maximal inhibition (IC50) at SARS-CoV-2 Mpro was determined as 19.8 nM.

In the case of `CC1(C)[C@@H]2[C@@H](C(=O)N[C@H](C=O)C[C@@H]3CCNC3=O)N(C(=O)C3CCCC3)C[C@@H]21` [Compound 124, (1R,2S,5S)-3-(Cyclopentanecarbonyl)-6,6-dimethyl-N—((S)-1-oxo-3-((S)-2-oxopyrrolidin-3-yl)propan-2-yl)-3-azabicyclo[3.1.0]hexane-2-carboxamide], the half-maximal inhibitory concentration (IC50) against HCoV-OC43 Mpro came out at 490 nM; on HCoV-229E Mpro, 162 nM; at HCoV-NL63 Mpro, 2500 nM; against MERS Mpro it was 2000 nM; against SARS-CoV-1 Mpro, 473 nM; against HCoV-HKU1 Mpro, 407 nM. Further, at SARS-CoV-2 Mpro, the IC50 was 211 nM.

The values are drawn from patent publication US20260355212A1 (priority 2022, published 2026).
